Counter-ions that a name gives are not always drawn. Numbers after ± are expanded uncertainties.

For this data set the following is noted: 101.33 kPa, Liquid; for viscosity: Capillary tube (Ostwald / Ubbelohde) method; for mass density: Pycnometric method.

In general, viscosity refers to the internal friction of a fluid under shear. Broadly, the mass density is mass per unit of volume. In the case of `CCCCOC(=O)C(C)O` (centres undefined) [butyl 2-hydroxypropanoate], the viscosity (293.15 K) is 3.87 ± 0.39 mPa·s; the viscosity (298.15 K) came out at 3.26 ± 0.33 mPa·s; the viscosity (303.15 K) turned out to be 2.81 ± 0.28 mPa·s; the viscosity (308.15 K) turned out to be 2.42 ± 0.24 mPa·s; the viscosity (313.15 K) is recorded as 2.15 ± 0.22 mPa·s; the viscosity (318.15 K) is listed as 1.9 ± 0.19 mPa·s. Besides, the viscosity runs as follows: (323.15 K) 1.69 ± 0.17 mPa·s; (328.15 K) 1.55 ± 0.16 mPa·s; (333.15 K) 1.43 ± 0.14 mPa·s; (338.15 K) 1.3 ± 0.13 mPa·s. In addition, the mass density (293.15 K) came out at 981.5 ± 4 kg/m3; the mass density (298.15 K) is 977 ± 4 kg/m3; the mass density (303.15 K) is given as 973.1 ± 4 kg/m3; the mass density (308.15 K) came out at 968.4 ± 4 kg/m3; the mass density (313.15 K) worked out at 963.5 ± 4 kg/m3; the mass density (318.15 K) is 958.5 ± 3.9 kg/m3. Besides, the mass density is reported as 953.9 ± 3.9 kg/m3 (323.15 K), 948.9 ± 3.9 kg/m3 (328.15 K), 944.1 ± 3.9 kg/m3 (333.15 K) and 940.1 ± 3.9 kg/m3 (338.15 K).

Regarding `CC(=O)OCC(COC(C)=O)OC(C)=O` [glyceryl triethanoate], the viscosity is on record as 21.48 ± 2.2 mPa·s (293.15 K); 16.36 ± 1.6 mPa·s (298.15 K); 12.5 ± 1.3 mPa·s (303.15 K); 9.95 ± 1 mPa·s (308.15 K); 8.21 ± 0.82 mPa·s (313.15 K); 6.75 ± 0.68 mPa·s (318.15 K). Moreover, the viscosity came out at 5.66 ± 0.57 mPa·s (323.15 K), 4.82 ± 0.48 mPa·s (328.15 K), 4.18 ± 0.42 mPa·s (333.15 K) and 3.67 ± 0.37 mPa·s (338.15 K). Further, the mass density reads like this: (293.15 K) 1158.3 ± 4.7 kg/m3; (298.15 K) 1152.9 ± 4.7 kg/m3; (303.15 K) 1147.4 ± 4.7 kg/m3; (308.15 K) 1142 ± 4.6 kg/m3; (313.15 K) 1136.6 ± 4.6 kg/m3; (318.15 K) 1131.1 ± 4.6 kg/m3. Besides, the mass density is, setting by setting: (323.15 K) 1125.7 ± 4.6 kg/m3; (328.15 K) 1120.2 ± 4.6 kg/m3; (333.15 K) 1114.8 ± 4.5 kg/m3; (338.15 K) 1109.4 ± 4.5 kg/m3.

With `CCOC(=O)CC(CC(=O)OCC)(OC(C)=O)C(=O)OCC` [triethyl acetyl citrate], the mass density by setting is: (293.15 K) 1142.1 ± 5.2 kg/m3; (298.15 K) 1137.5 ± 5.2 kg/m3; (303.15 K) 1133.1 ± 5.2 kg/m3; (308.15 K) 1127.6 ± 5.1 kg/m3; (313.15 K) 1124.1 ± 5.1 kg/m3; (318.15 K) 1118.5 ± 5.1 kg/m3. The mass density turned out to be 1115.1 ± 5.1 kg/m3 (323.15 K), 1110.1 ± 5.1 kg/m3 (328.15 K), 1105.4 ± 5 kg/m3 (333.15 K) and 1100.5 ± 5 kg/m3 (338.15 K). Besides, the viscosity (298.15 K) came to 46.55 ± 4.7 mPa·s; the viscosity (303.15 K) is reported as 34.56 ± 3.5 mPa·s; the viscosity (308.15 K) is given as 25.1 ± 2.6 mPa·s; the viscosity (313.15 K) worked out at 17.52 ± 1.8 mPa·s; the viscosity (318.15 K) was 13.81 ± 1.4 mPa·s; the viscosity (323.15 K) is reported as 10.95 ± 1.1 mPa·s. In addition, the viscosity worked out at 8.86 ± 0.9 mPa·s (328.15 K), 7.98 ± 0.81 mPa·s (333.15 K) and 7.02 ± 0.71 mPa·s (338.15 K).

For the compound `CCOC(=O)CC(O)(CC(=O)OCC)C(=O)OCC` [triethyl citrate], the viscosity runs as follows: (293.15 K) 44.12 ± 4.4 mPa·s; (298.15 K) 32.1 ± 3.2 mPa·s; (303.15 K) 20.79 ± 2.1 mPa·s; (308.15 K) 16.55 ± 1.7 mPa·s; (313.15 K) 13.18 ± 1.3 mPa·s; (318.15 K) 10.24 ± 1 mPa·s. The viscosity runs as follows: (323.15 K) 8.62 ± 0.87 mPa·s; (328.15 K) 7.23 ± 0.73 mPa·s; (333.15 K) 6.41 ± 0.65 mPa·s; (338.15 K) 5.71 ± 0.57 mPa·s. Moreover, the mass density runs as follows: (293.15 K) 1138.4 ± 4.7 kg/m3; (298.15 K) 1134.5 ± 4.7 kg/m3; (303.15 K) 1131.1 ± 4.7 kg/m3; (308.15 K) 1126.2 ± 4.7 kg/m3; (313.15 K) 1122.4 ± 4.7 kg/m3; (318.15 K) 1116.5 ± 4.6 kg/m3. The mass density worked out at 1112.1 ± 4.6 kg/m3 (323.15 K), 1106.6 ± 4.6 kg/m3 (328.15 K), 1102.8 ± 4.6 kg/m3 (333.15 K) and 1097.3 ± 4.6 kg/m3 (338.15 K).
